Data on 5 compounds can be found in patent US20080188528A1, “Modulators of C3a receptor and methods of use thereof” (priority 2006, published 2008).

Each structure is given as a SMILES string. Structures can show the parent of a compound that is named as a salt.

Test [1] concerns the target T1, human C3a receptor (C3aR) (Homo sapiens, UniProt Q16581).
T1 construct: expressed in transfected cells
T1 sequence (Q16581 1-482): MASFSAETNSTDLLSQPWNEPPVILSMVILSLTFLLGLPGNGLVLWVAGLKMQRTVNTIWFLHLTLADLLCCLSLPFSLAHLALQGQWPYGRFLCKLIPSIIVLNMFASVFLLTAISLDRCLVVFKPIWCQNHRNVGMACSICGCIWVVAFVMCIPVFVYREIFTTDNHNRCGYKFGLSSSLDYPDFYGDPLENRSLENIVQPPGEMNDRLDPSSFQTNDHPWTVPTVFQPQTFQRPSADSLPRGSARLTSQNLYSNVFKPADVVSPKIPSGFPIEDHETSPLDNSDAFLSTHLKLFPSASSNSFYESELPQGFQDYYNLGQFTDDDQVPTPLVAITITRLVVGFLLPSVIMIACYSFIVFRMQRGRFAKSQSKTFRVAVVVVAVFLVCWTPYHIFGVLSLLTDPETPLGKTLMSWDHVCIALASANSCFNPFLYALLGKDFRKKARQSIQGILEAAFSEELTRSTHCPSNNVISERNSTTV
Kind of test: Inhibition of human [125I]-C3a binding to human C3a receptor (SPA, membranes of HEK293 cells expressing recombinant C3aR). The following applies: 0.1 nM [125I]-C3a, 3 hours at room temperature; Table 6. In a few lines:
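HEK293 C3aR membranes were pre-coupled to WGA SPA beads and incubated 3 h at room temperature with 0.1 nM [125I]-C3a in HEPES pH 7.4 buffer containing 0.25% BSA and 0.2% CHAPS, DMSO ≤1%. Nonspecific binding was defined with 1 μM unlabeled C3a. IC50 came from nonlinear least-squares fitting.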

For test [2] the following is noted: cited from earlier work.

Consider `N=CNCCC[C@H](NC(=O)c1ccc(C(c2ccccc2)c2ccccc2)s1)C(=O)O` [Compound 133, (2S)-2-({[5-(diphenylmethyl)thiophen-2-yl]carbonyl}amino)-5-[(iminomethyl)amino]pentanoic acid•TFA], for which, in test [1], the IC50 was 0.05 to 0.5 µM. The same measure, in the same setting: as for `CC(=N)Nc1cccc([C@H](NC(=O)c2ccc(C(c3ccccc3)c3ccccc3)s2)C(=O)O)c1` [Compound 134, (2S)-({[5-(Diphenylmethyl)thiophen-2-yl]carbonyl}amino)[3-(ethanimidoylamino)phenyl]ethanoicacid], the figure is 0.5 to 20 µM. The same measure, in the same setting: as for `CC(=N)Nc1ccc([C@H](NC(=O)c2ccc(C(c3ccccc3)c3ccccc3)s2)C(=O)O)cc1` [Compound 135, (2S)-({[5-(Diphenylmethyl)thiophen-2-yl]carbonyl}amino)[4-(ethanimidoylamino)phenyl]ethanoicacid], the figure is 0.5 to 20 µM.

`C/C(=N\O)NCCC[C@H](NC(=O)c1ccc(C(c2ccccc2)c2ccccc2)s1)C(=O)O` [Compound 136, (2S)-2-({[5-(diphenylmethyl)thiophen-2-yl]carbonyl}amino)-5-{[1-(hydroxyamino)ethylidene]amino}pentanoic acid•TFA]: the IC50 in test [1] was 0.05 to 0.5 µM. Turning to `NC(N)=NCCC[C@H](NC(=O)COCC(c1ccccc1)c1ccccc1)C(=O)O` [SB-290157], the airway inflammation result in test [2] (asthma model) is “reduction of airway inflammation”. For the same compound, in test [2] (in vivo), the neutrophil recruitment entry is given as “inhibition of neutrophil recruitment” and the paw edema entry is “decreased paw edema”.

One may read the IC50 as the concentration that gives 50% inhibition.
